Assay results reported in patent US20040043937A1, “Peptide and peptide mimetic derivatives with integrin-inhibitors properties II” (priority 2000, published 2004).
Where no end group is shown, it is not given here.

Tested on: mouse MC3T3 H1 osteoblast cultures
Assay: Cell adhesion test: adhesion of osteoblast cultures in vitro to peptide-coated material surfaces
Type: cell-based
Conditions: 50 000 cells/cm^2 inoculated, incubation in serum-free medium at 37° C./95% atmospheric humidity for one hour
Method: Example for Cell Adhesion Test The adhesion of mouse MC3T3 H1 osteoblast cultures in vitro to peptide-coated material surfaces was investigated. In this test, 50 000 cells/cm^2 were inoculated and, after incubation in serum-free medium at 37° C./95% atmospheric humidity for one hour, the proportion of adhered cells was determined. Cell adhesion rate [%]=adhered cells/inoculated cells×100 The coating of culture surfaces made of polystyrene precoated with bovine serum albumin (BSA) with thiol peptides is disclosed in the prior art (see DE 198 18098 (Merck Patent GmbH), Ex. 2). The coating of PMMA surfaces with acrylate peptides is also described in DE 198 18098, Ex. 3.

Substance	cell adhesion rate [%] (adhered cells/inoculated cells×100)
Cys-Aca-Aca-Thr-Trp-Tyr-Lys-Ile-Ala ({Cys-Aca-Aca}-TWYKIA) [linear peptide with thiol (Cys) anchor]	7%
Cys-Aca-Aca-Thr-Trp-Tyr-Lys-Ile-Ala-Phe-Gln-Arg ({Cys-Aca-Aca}-TWYKIAFQR) [linear peptide with thiol (Cys) anchor]	17%
Cys-Aca-Aca-Thr-Trp-Tyr-Lys-Ile-Ala-Phe-Gln-Arg-Asn-Arg-Lys ({Cys-Aca-Aca}-TWYKIAFQRNRK) [linear peptide with thiol (Cys) anchor]	101%
Gua-Mab-azaGly-Asp-Hda-εAhx-εAhx-Aca	75%
Lys-Ile-Ala-Phe-Gln-Arg-Asn-Arg-Lys-Aca-Aca-Cys (KIAFQRNRK-{Aca-Aca-Cys}) [linear peptide with thiol (Cys) anchor]	96%
Phe-Gln-Arg-Asn-Arg-Lys-Aca-Aca-Cys (FQRNRK-{Aca-Aca-Cys}) [linear peptide with thiol (Cys) anchor]	13%
Thr-Trp-Tyr-Lys-Ile-Ala-Phe-Gln-Arg-Asn-Arg-Lys-Aca-Aca-Cys (TWYKIAFQRNRK-{Aca-Aca-Cys}) [linear peptide with thiol (Cys) anchor]	105%
